Marks after values point to notes of the source that are not given here. One block for each molecule: values may come before it.
Experiments:
[1] = target: T1, recombinant human IDO1 enzyme (Homo sapiens, UniProt P14902); experiment: Test of hIDO1 for enzymatic activity in vitro (NFK Green fluorescence); format: biochemical
T1 construct: purchased NTRC (Netherlands Translational Research Center) NTRC-hIDO-10K
Procedure: 1. Test of hIDO1 for Enzymatic Activity In Vitro
1.1 Purpose of Experiment:
Changes in production of NFK, an IDO1 enzymatic metabolite were detected with NFK Green™ fluorescent molecules. With an IC50 value of a compound as an index, an inhibitory effect of the compound on recombinant human IDO1 enzyme was evaluated.
The compound was diluted with dimethyl sulfoxide (DMSO) to 1 mM, with 10 gradients, each 3-fold dilution, in duplicate. 48 μL of 50 mM phosphate buffer, having pH of 6.5, was transferred by the Bravo automatic liquid processing platform to the compound plate. Then 2 μL of an already diluted compound/DMSO solution was added. After even mixing, 10 μL of the resultant mixture was transferred to the enzymatic reaction plate.
IDO1 enzyme was diluted to 20 nM in a reaction buffer (50 mM phosphate buffer with pH of 6.5, 0.1% of Tween-20, 2% of glycerol, 20 mM ascorbic acid, 20 μg/ml catalase, and 20 μM methylene blue), 20 μL of the diluted IDO1 enzyme was transferred to the enzymatic reaction plate, and incubated at 23° C. for 30 minutes. 10 μL of 400 μM L-type tryptophan substrate was added to start reaction. The incubation lasted at 23° C. for 90 minutes. 10 μL of NFK Green™ fluorescent dye was added. The resultant mixture was sealed with the plate sealing film. After incubation at 37° C. for 4 hours, an Envision multi-functional plate reader was used for reading (Ex 400 nm/Em 510 nm).
A reference well to which the IDO1 enzyme was added but no compound was added was set to have an inhibition rate of 0%, and a reference well to which no IDO1 enzyme was added was set to have an inhibition rate of 100%. Data was analyzed with XLFit 5 to calculate an IC50 value of the compound.

[2] = Test for permeability across MDR1; format: in vitro ADME; conditions: dog, MDCK-MDR1
Procedure: Test for Permeability Across MDR1
A sample for test was dissolved in dimethyl sulfoxide (DMSO) or other suitable solvents, to be prepared into 10 mM stock solution. A suitable internal standard (IS) was dissolved in acetonitrile (ACN) or other organic solvents as a stop solution. Specific information would be described in a research report.
Fenoterol, propranolol, and digoxin acted as low-permeability control, high-permeability control, and P-gp substrate in the present research. The stock solutions of these compounds were prepared with DMSO, stocked at 2-8° C., and valid for use within 3 months.
In the present project, a Hank's balanced salt buffer containing 10 mM HEPES was used as a transport buffer.
MDR1-MDCK II cells were cultivated using α-MEM culture media (α-Minimum Essential Media), with a culture condition of 37±1° C., 5% CO2, and saturated relative humidity. Afterwards, the cells were inoculated into a BD Transwell-96-well plate (BD Gentest), with an inoculation density of 2.3×10^5 cells/cm^2, then the cells were placed in a carbon dioxide incubator to be incubated for 4-7 days, and then used for a transport experiment.
A solution to be used was placed in a 37±1° C. water bath kettle to be pre-incubated for 30 minutes. The donor solution and the receiver solution were respectively added to corresponding sides of wells of cell plate (to an apical side and a basolateral side, 75 μL and 250 μL of samples were added respectively), and experiment of bidirectional transport was started. After the addition of the samples, the cell plate was placed in a 37±1° C., 5% CO2 incubator with saturated relative humidity to be incubated for 150 minutes.
The samples were all centrifuged at 3220 g for 10 minutes after being shaken in a vortex manner. A suitable volume of a supernatant was transferred to a sample analyzing plate. If analysis was not carried out immediately after the plate was sealed, the plate was stored at 2-8° C. The analysis was carried out through a method of LC/MS/MS.
The sample for test, fenoterol control, propranolol control, and digoxin were analyzed in a semiquantitative manner, and specific values of analytes to a peak area of the internal standard were taken as concentration of the controls.

mice colon cancer CT26 = experiment: Efficacy against mice colon cancer CT26 transplanted tumor; format: in vivo, BALB/c mice; conditions: for Inhibitory Rate for Tumor Weight / Tumor Weight / mean tumor weight compared with the control group: end of experiment; for tumor inhibitory effect compared at the same dose: same dose of 100 mg/kg
Procedure: Research on Efficacy of Anti-Mice Colon Cancer Ct26
In the present research, colon cancer CT26 models were employed to compare differences between compound 231 and compounds 360 and 117 in antitumor effects.
Therefore, the dose of the two compounds, compound 360 and compound 117, in the present experiment was set as 100 mg/kg. In order to observe dose-efficacy relevance of 231, a dose of the compound 231 was set as 25, 50, 100, 200 mg/kg in the present experiment. All drugs were administered by gavage, twice a day.
According to document reports, mice colon cancer CT26 is a commonly used tumor model for evaluating immunological drugs. […] Therefore, CT26-bearng BALB/c models were chosen in the present experiment for research on efficacy and tissue distribution.
In a super-clean bench, each mouse was subcutaneously inoculated with 0.2 mL of the tumor cell suspension at shoulder, with an inoculation amount of 1×10^5 per mouse. When a tumor block grew to be 500-1000 mm^3, the tumor block was taken out, cut into pieces with scissors, and subcutaneously inoculated at shoulder at the mouse's back using a subcutaneous embedding implantation puncture needle (with a diameter of 1.2 mm).
The day of tumor inoculation was defined as Day 0, and the inoculated animals were grouped randomly on the day of inoculation. One day after the inoculation (Day 1), the administration was started. The experiment had 7 groups in total, with 12 animals in each group. See details in Table 12 for information on animal grouping and administration.
It was an experimental cycle when the tumor in the control group grew to have a volume of 3000 mm^3. The following indexes were observed during the experiment.
(1) As for tumor growth curve, when the tumor was measurable, a maximum diameter (a) and a minimum diameter (b) of the tumor were measured once every other day, to calculate the tumor volume (a calculation formula is V=½×a×b^2), and anti-tumor effect of the tested drug was observed dynamically.
(4) As for tumor inhibitory rate, when the experiment was ended, the mice were killed by cervical dislocation, the tumor blocks were taken out and weighed, to calculate the tumor inhibitory rate, where tumor inhibitory rate=(mean tumor weight of the control group-mean tumor weight of the treatment group)/mean tumor weight of the control group×100%), and the tumor blocks were photographed with a digital camera for recording.

T1 sequence (P14902 whole entry): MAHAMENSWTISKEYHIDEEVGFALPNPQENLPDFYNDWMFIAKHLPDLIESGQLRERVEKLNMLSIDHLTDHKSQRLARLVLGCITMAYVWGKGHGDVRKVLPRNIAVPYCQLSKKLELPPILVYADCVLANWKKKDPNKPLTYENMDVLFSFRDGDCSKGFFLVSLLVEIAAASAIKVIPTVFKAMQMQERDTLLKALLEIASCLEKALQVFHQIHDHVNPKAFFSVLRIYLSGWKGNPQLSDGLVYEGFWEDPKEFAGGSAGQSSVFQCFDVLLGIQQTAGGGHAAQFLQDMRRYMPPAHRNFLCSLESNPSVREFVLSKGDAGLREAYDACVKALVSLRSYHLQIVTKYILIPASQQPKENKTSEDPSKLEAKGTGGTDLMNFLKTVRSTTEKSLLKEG

IC50 [1]: 115 nM
Papp A→B at 150 min, 2 µM [2]: 1.76 ×10⁻⁶ cm/s
Papp B→A at 150 min, 2 µM [2]: 13.6 ×10⁻⁶ cm/s
SMILES: NS(=O)(=O)NCCOc1nonc1/C(=N/O)Nc1ccc(F)c(Br)c1 [Compound 0015]

SMILES: NS(=O)(=O)NCCSc1nonc1/C(=N/O)Nc1ccc(F)c(Br)c1 [Compound 0117]
IC50 [1]: 26.2 nM
Papp A→B at 150 min, 2 µM [2]: 3.2 ×10⁻⁶ cm/s
Papp B→A at 150 min, 2 µM [2]: 11.3 ×10⁻⁶ cm/s
mean tumor volume compared with the control group during the test (mice colon cancer CT26; 100 mg/kg gavage BID): always less than that of the control group, but without statistical difference
animals without tumor block when the test was ended (mice colon cancer CT26; 100 mg/kg gavage BID, 12 animals): one animal on which no tumor block grew
Mean Tumor Volume (mice colon cancer CT26; 100 mg/kg gavage BID, D12): 517.3 ± 261.9 mm^3
Mean Tumor Volume (mice colon cancer CT26; 100 mg/kg gavage BID, D14): 760.9 ± 335.7 mm^3
Mean Tumor Volume (mice colon cancer CT26; 100 mg/kg gavage BID, D17): 1410.5 ± 734.0 mm^3
Mean Tumor Volume (mice colon cancer CT26; 100 mg/kg gavage BID, Day8): 130.1 ± 31.1 mm^3
Mean Tumor Volume (mice colon cancer CT26; 100 mg/kg gavage BID, Day10): 262.3 ± 131.2 mm^3
Inhibitory Rate for Tumor Weight (mice colon cancer CT26; 100 mg/kg gavage BID): 14.4%
Tumor Weight (mice colon cancer CT26; 100 mg/kg gavage BID): 1.71 ± 0.76 g
mean tumor weight compared with the control group (mice colon cancer CT26; 100 mg/kg gavage BID): less than that of the control group, but without statistical difference

IC50 [1]: 59.3 nM
Papp A→B at 150 min, 2 µM [2]: 12.5 ×10⁻⁶ cm/s
Papp B→A at 150 min, 2 µM [2]: 18 ×10⁻⁶ cm/s
SMILES: CC(=O)NCCSc1nonc1/C(=N/O)Nc1ccc(F)c(Br)c1 [Compound 0227]

SMILES: NC(=O)NCCSc1nonc1/C(=N/O)Nc1ccc(F)c(Br)c1 [Compound 0231]
IC50 [1]: 42.2 nM
Papp A→B at 150 min, 2 µM [2]: 3.79 ×10⁻⁶ cm/s
Papp B→A at 150 min, 2 µM [2]: 17.9 ×10⁻⁶ cm/s
tumor volume compared with the control group (mice colon cancer CT26; 25 mg/kg (low dose) gavage BID): remarkably less than that of the control group at Day 10 and Day 12
Mean Tumor Volume (mice colon cancer CT26; 25 mg/kg gavage BID, D12): 411.7 ± 275.4* mm^3
Mean Tumor Volume (mice colon cancer CT26; 25 mg/kg gavage BID, D14): 721.9 ± 575.3 mm^3
Mean Tumor Volume (mice colon cancer CT26; 25 mg/kg gavage BID, D17): 1471.2 ± 1269.4 mm^3
Mean Tumor Volume (mice colon cancer CT26; 25 mg/kg gavage BID, Day8): 69.5 ± 21.9 mm^3
Mean Tumor Volume (mice colon cancer CT26; 25 mg/kg gavage BID, Day10): 229.1 ± 76.7* mm^3
Inhibitory Rate for Tumor Weight (mice colon cancer CT26; 25 mg/kg gavage BID): 25.9%
Tumor Weight (mice colon cancer CT26; 25 mg/kg gavage BID): 1.49 ± 1.16 g
Mean Tumor Volume (mice colon cancer CT26; 50 mg/kg gavage BID, D12): 436.8 ± 204.9* mm^3
Mean Tumor Volume (mice colon cancer CT26; 50 mg/kg gavage BID, D14): 661.5 ± 255.6* mm^3
Mean Tumor Volume (mice colon cancer CT26; 50 mg/kg gavage BID, D17): 1242.2 ± 500.9* mm^3
Mean Tumor Volume (mice colon cancer CT26; 50 mg/kg gavage BID, Day8): 94.5 ± 52.5 mm^3
Mean Tumor Volume (mice colon cancer CT26; 50 mg/kg gavage BID, Day10): 234.6 ± 117.6* mm^3
Inhibitory Rate for Tumor Weight (mice colon cancer CT26; 50 mg/kg gavage BID): 29.2%
Tumor Weight (mice colon cancer CT26; 50 mg/kg gavage BID): 1.42 ± 0.56 g
Mean Tumor Volume (mice colon cancer CT26; 100 mg/kg gavage BID, D12): 372.4 ± 308.9* mm^3
Mean Tumor Volume (mice colon cancer CT26; 100 mg/kg gavage BID, D14): 598.6 ± 442.3* mm^3
Mean Tumor Volume (mice colon cancer CT26; 100 mg/kg gavage BID, D17): 1195.4 ± 779.8* mm^3
Mean Tumor Volume (mice colon cancer CT26; 100 mg/kg gavage BID, Day8): 97.9 ± 86.9 mm^3
Mean Tumor Volume (mice colon cancer CT26; 100 mg/kg gavage BID, Day10): 168.2 ± 145.5* mm^3
Inhibitory Rate for Tumor Weight (mice colon cancer CT26; 100 mg/kg gavage BID): 34.0%
Tumor Weight (mice colon cancer CT26; 100 mg/kg gavage BID): 1.32 ± 1.09 g
Mean Tumor Volume (mice colon cancer CT26; 200 mg/kg gavage BID, D12): 300.4 ± 231.8* mm^3
Mean Tumor Volume (mice colon cancer CT26; 200 mg/kg gavage BID, D14): 512.2 ± 351.8* mm^3
Mean Tumor Volume (mice colon cancer CT26; 200 mg/kg gavage BID, D17): 909.7 ± 544.6* mm^3
Mean Tumor Volume (mice colon cancer CT26; 200 mg/kg gavage BID, Day8): 74.2 ± 32.2 mm^3
Mean Tumor Volume (mice colon cancer CT26; 200 mg/kg gavage BID, Day10): 160.5 ± 114.9* mm^3
Inhibitory Rate for Tumor Weight (mice colon cancer CT26; 200 mg/kg gavage BID): 56.8%
Tumor Weight (mice colon cancer CT26; 200 mg/kg gavage BID): 0.87 ± 0.74 g
mean tumor weight compared with the control group (mice colon cancer CT26; 200 mg/kg gavage BID): remarkably less than that of the control group
mean tumor weight compared with the control group (mice colon cancer CT26; 25, 50, 100 mg/kg gavage BID): less than that of the control group, but without statistical difference
tumor inhibitory effect, dose dependence (mice colon cancer CT26; 25, 50, 100, 200 mg/kg gavage BID): dose-dependent manner
tumor volume compared with the control group (mice colon cancer CT26; dose equal to or greater than 50 mg/kg, Day 10 to end of test): always remarkably less than that of the control group
tumor inhibitory effect compared at the same dose (mice colon cancer CT26): equivalent tumor inhibitory effect

SMILES: NS(=O)(=O)NCCNc1nonc1C(=NO)Nc1ccc(F)c(Br)c1 [Compound 360, INCB024360, reference compound]
Papp A→B at 150 min, 2 µM [2]: 1.61 ×10⁻⁶ cm/s
Papp B→A at 150 min, 2 µM [2]: 13.3 ×10⁻⁶ cm/s
mean tumor volume compared with the control group during the test (mice colon cancer CT26; 100 mg/kg gavage BID): always less than that of the control group, but without statistical difference
Mean Tumor Volume (mice colon cancer CT26; 100 mg/kg gavage BID, D12): 512.0 ± 240.2 mm^3
Mean Tumor Volume (mice colon cancer CT26; 100 mg/kg gavage BID, D14): 949.2 ± 773.3 mm^3
Mean Tumor Volume (mice colon cancer CT26; 100 mg/kg gavage BID, D17): 1531.0 ± 606.0 mm^3
Mean Tumor Volume (mice colon cancer CT26; 100 mg/kg gavage BID, Day8): 95.2 ± 36.6 mm^3
Mean Tumor Volume (mice colon cancer CT26; 100 mg/kg gavage BID, Day10): 303.5 ± 233.3 mm^3
Inhibitory Rate for Tumor Weight (mice colon cancer CT26; 100 mg/kg gavage BID): 29.5%
Tumor Weight (mice colon cancer CT26; 100 mg/kg gavage BID): 1.41 ± 0.81 g
mean tumor weight compared with the control group (mice colon cancer CT26; 100 mg/kg gavage BID): less than that of the control group, but without statistical difference
tumor inhibitory rate for CT26 (mice colon cancer CT26; preliminary experimental research, gavage 100 mg/kg bid): 30-50%
tumor inhibitory effect compared at the same dose (mice colon cancer CT26): equivalent tumor inhibitory effect

Source: US20190169140A1, “IDO1 INHIBITOR AND PREPARATION METHOD AND APPLICATION THEREOF” (SHANDONG LUYE PHARMACEUTICAL CO., LTD., priority 2016, published 2019)
